Experimental data published in patent US11135322B2, “Radiofluorination method” (GE HEALTHCARE LIMITED, priority 2012, dated 2021).

Assay: Hydrolytic stability of the metal halide complexes in aqueous solution (19F and 71Ga NMR studies)
Format: physicochemical
From the text: ^19F and ^71Ga NMR studies show complete conversion to [GaF3(Me3-tacn)]. Furthermore they confirm that the structure of the complex is retained in solution. […] The structure has also been confirmed crystallographically (FIG. 2). This provides clear evidence that direct incorporation of fluoride into the coordination sphere of carefully selected metal ions is entirely feasible, as well as establishing the high stability of the resulting fluoro complexes, even in aqueous solution.

[GaF3(Me3-tacn)].4H2O
resistance to hydrolysis / hydrolytic stability (aqueous solution): resistant to hydrolysis | stability relative to analogous halide or metal complexes (comparison with analogues): considerably more stable than the chloride and bromide analogues
